Converted amounts (≈) assume the structure as drawn. “And” between values parts separate entries of the source, which are not always exact repeats. Identical values can stand only once.
What was measured:
[1] = system: Staphylococcus epidermidis (ATCC 12228); assay: MIC, serial broth dilution; assay type: cell-based; details: MHB, 18 h, 37° C.
Procedure: (§1) The peptidomimetics designed in present invention were evaluated as antibacterial therapeutics against a broad range of bacterial strains by broth microdilution method. The antibacterial activity of the peptidomimetics was reported in terms of the minimum inhibitory concentrations (MIC).
(§2) Following bacterial strains were used in this study: S. aureus (ATCC 29213), methicillin resistant S. aureus (ATCC 33591), Staphylococcus epidermidis (ATCC 12228), methicillin resistant Staphylococcus epidermidis(ATCC 51625), Enterococcus faecalis (ATCC 7080), Escherichia coli (ATCC 11775), and Acinetobacter baumannii (ATCC 19606). Antibacterial activity was evaluated using a modified serial broth dilution method in accordance with Clinical Laboratory Standard Institute guidelines [Methods for dilution antimicrobial susceptibility tests for bacteria that grow aerobically-7th ed. Approved standard M7-A7. Clinical and Laboratory Standards Institute, Wayne, Pa., Biochim. Biophys. Acta 1798:1864-1875, 2010.]. Briefly, the inoculums were prepared from mid-log phase bacterial cultures. Peptidomimetics were incubated with bacterial suspension in Muller Hinton broth media (10^5 CFU/mL) in 96 well microtitre plate. The plates were incubated overnight with agitation (200 rpm) at 37° C. After 18 h, absorbance was measured at 630 nm. Cultures without test peptidomimetics were used as positive control. Un-inoculated Mueller Hinton Broth (MHB) was used as negative control. Tests were carried out in duplicate on at least three different days. […] For comparison standard peptide antibiotics vancomycin (VAN) and polymyxin B (PMB) were also assayed under identical conditions (Table 2). […] Further, antibacterial activity of active peptidomimetics 1c and 1d were also evaluated against MRSA in presence of 25% v/v human serum as well as bovine serum.

[2] = system: Enterococcus faecalis (ATCC 7080); assay: MIC, serial broth dilution; assay type: cell-based; details: MHB, 18 h, 37° C.
Procedure: as §1, §2

[3] = system: Acinetobacter baumannii (ATCC 19606); assay: MIC, serial broth dilution; assay type: cell-based; details: MHB, 18 h, 37° C.
Procedure: as §1, §2

MRSA = assay: Membrane depolarization with DiSC3(5) dye; assay type: cell-based, Staphylococcus aureus; details: up to the highest concentration tested
Procedure: For determination of membrane depolarizing ability of designed peptidomimetics, a membrane potential sensitive dye DiSC3(5) was used as described previously with minor modifications [Org Biomol. Chem. 10: 8326-8335, 2012; J. Am. Chem. Soc., 132: 18417-18428, 2010.]. Briefly, overnight grown MRSA was sub cultured into MHB for 2-3 h at 37° C. to obtain mid-log phase cultures. The cells were centrifuged at 4000 rpm for 10 min at 25° C., washed, and re-suspended into respiration buffer (5 mM HEPES, 20 mM glucose, pH 7.4) to obtain a diluted suspension of OD600˜0.05. Then DiSC3(5) [0.18 μM in DMSO], was added to 500 μL aliquotes of the re-suspended cells and allowed to stabilize for 1 h. Baseline fluorescence was acquired using a Edinburg F900 spectrofluorometer by excitation at 622 nm and emission at 670 nm in a 1 cm path length cuvette. Bandwidth of 5 nm was employed for excitation and emission. Subsequently, increasing concentrations of test peptidomimetics were added to the stabilized cells and the increase of fluorescence on account of the de-quenching of DiSC3(5) dye was measured after every 2 min to obtain the maximal depolarization. Increase in relative fluorescence unit (RFU) was plotted against increasing concentrations of different peptidomimetics or PMB. […] The increase in fluorescence for lipid tagged peptidomimetics was concentration dependent up to 9.9 μg/mL and henceforth, got saturated resulting into plateau like dose response curves. The experiment was repeated twice on two consecutive days and produced similar results.

MRSA (ATCC 33591) = assay: Planktonic MIC in biofilm media (MICb); assay type: cell-based, Staphylococcus aureus; details: TSB with 0.5% NaCl and 0.25% glucose
[4] = system: MRSA (ATCC 33591) biofilm; assay: Confocal laser scanning microscopy of biofilm, thickness by z-stacking; assay type: cell-based, Staphylococcus aureus; details: for thickness of mature biofilm after treatment: 10×MICb, untreated 23.6±2.5 μm; for thickness of mature biofilm after treatment / confocal observation of mature biofilm: 24 h preformed biofilm; for confocal observation of mature biofilm: 20×MICb; for average thickness of biofilm, biofilm formation: MICb; for average thickness of biofilm, biofilm formation / thickness of biofilm, biofilm formation: control 14.3±1.4 μm; for thickness of biofilm, biofilm formation: sub-MICb
Description: For visualization of biofilm and validation of AB and CV assay we performed confocal microscopy. For this biofilm formation was induced on glass cover slips in a 6-well plate. The biofilm on cover slips were washed twice with sterile NaCl/Pi buffer and stained with a Live/Dead kit reagent (Invitrogen, Molecular Probes, Eugene, Oreg., USA) following the manufacturer's instructions. This stain contains DNA binding dyes SYTO 9 (green fluorescent) and propidium iodide (PI; red fluorescent). When used alone, SYTO 9 stains all bacteria in a population, those with intact as well as damaged membranes. In contrast, PI penetrates only bacteria with damaged membranes, causing a reduction in the SYTO 9 stain (green fluorescence). The biofilms were examined with an Olympus flow view FV1000 (confocal laser scanning microscope, CLSM). The experiment was repeated three times on three different days and representative data is presented here.
We next measured the thickness of biofilm using z-stacking in confocal microscopy. […] At MICb, 1c and 1d prevented formation of biofilm in which very few cells were adhered to substratum with observed average thickness of 3.9±1.1 μm and 3.5±0.6 μm, respectively. Furthermore, at sub-MICb concentration the observed thicknesses were 5.2±0.3 μm and 5.8±0.4 μm (FIG. 7A.b and FIG. 7A.d).

[5] = system: peripheral blood mononuclear cells (PBMCs); assay: LDH release cytotoxicity assay; assay type: cell-based, human; details: 20 μg/mL, 24 h
Procedure: For the experiment a protocol as used previously was employed with minor modifications [J. Immunol. Methods, 115:61-69, 1988; Chem. Biol. 20:1286-1295, 2013.]. Briefly, blood was collected from healthy human donors in sodium heparin anticoagulant tubes in accordance with institutional guidelines. The blood was diluted 1:1 with NaCl/Pi (35 mM phosphate buffer, 150 mM NaCl, pH 7.2). Blood cells were separated over histopaque (Sigma-aldrich) by centrifugation for 30 min at 1200 rpm. The PBMCs were collected and washed twice with NaCl/Pi (35 mM phosphate buffer, 150 mM NaCl, pH 7.2). The cells were then re-suspended in complete RPMI 1640 medium (Himedia) supplemented with 10% FBS (Sigma) and quantified by trypan blue exclusion on microscope. PBMCs (1×10^6 cells/mL) in complete media were seeded into a 24-well plate and left in the incubator for 2 h at 37° C. in 5% CO2. The cells were then treated with 1c, 1d and VAN at desired concentrations (20 μg/mL). 2% Triton X-100 was used as a […] control. After 24 h of incubation, the content of each well was transferred to sterile 1.5 mL eppendorf tube and cells were pelleted at 2000 rpm for 10 min. The supernatant was assessed for the release of LDH by using the TOX7 kit (Sigma). […]

Structure (SMILES) | MIC S. epidermidis (ATCC 12228) [1] [µg/mL] | MIC E. facaelis (ATCC 7080) [2] [µg/mL] | MIC A. baumannii (ATCC 19606) [3] [µg/mL] | change in relative fluorescence unit (RFU), membrane depolarization (MRSA) | MICb, planktonic MIC in biofilm media (MRSA (ATCC 33591)) [µg/mL] | thickness of mature biofilm after treatment [4] [μm] | confocal observation of mature biofilm [4] | average thickness of biofilm, biofilm formation [4] [μm] | thickness of biofilm, biofilm formation [4] [μm] | % LDH release against peripheral blood mononuclear cells [5]
NCCCNCCCCNCCCNC(=O)C(Cc1c[nH]c2ccccc12)NC(=O)C(Cc1c[nH]c2ccccc12)NC(=O)Cc1ccc(C(F)(F)F)cc1 (centres unmarked) [1c] | 1.7 (≈ 2.23 µM) | 0.0284 (≈ 0.0373 µM) | 0.0284 (≈ 0.0373 µM) | only marginal changes in RFU | 7.1 | 7.1±1.5 | most of the cells lost their integrity | 3.9±1.1 | 5.2±0.3 | 5.78±6.58% and 5.78%
CCCCCCCCCC(=O)NC(Cc1c[nH]c2ccccc12)C(=O)NC(Cc1c[nH]c2ccccc12)C(=O)NCCCNCCCCNCCCN (centres unmarked) [1d] | 1.7 (≈ 2.33 µM) | 0.0035 (≈ 0.0048 µM) | 0.1136 (≈ 0.156 µM) | intermediate changes in fluorescence intensity | 3.5 | 7.0±1.0 | most of the cells lost their integrity | 3.5±0.6 | 5.8±0.4 | 17.56±10.15% and 17.5%

From US9738684B2, “N-terminally modified linear and branched polyamine conjugated peptidomimetics as antimicrobials agents” (COUNCIL OF SCIENTIFIC & INDUSTRIAL RESEARCH, priority 2015, dated 2017)
